Experimental data from ChEMBL document CHEMBL1142691, “Solid-phase total synthesis of kahalalide A and related analogues” (2005).
≈ marks a conversion by molar mass, not a printed value.

Tests used:
[1] = tested on: Mycobacterium tuberculosis; assay: Minimum inhibitory concentration against Mycobacterium tuberculosis; assay type: functional
[2] = tested on: Mycobacterium tuberculosis; assay: Concentration to inhibit of the growth of Mycobacterium tuberculosis at 12.5 ug/ml; assay type: functional

| SMILES | MIC [1] [µg/mL] | inhibition at 12.5 µg/mL [2] [%] |
| --- | --- | --- |
| CCC(C)C(=O)N[C@H](Cc1ccccc1)C(=O)N[C@@H]1C(=O)N[C@H](CC(C)C)C(=O)N[C@H](Cc2ccccc2)C(=O)N[C@H](CC(C)C)C(=O)N[C@@H]([C@@H](C)O)C(=O)N[C@@H](CO)C(=O)O[C@@H]1C (some centres undefined) | 64 (≈ 71.6 µM) | 83 |
| CCCCCC(=O)N[C@H](Cc1ccccc1)C(=O)N[C@@H]1C(=O)N[C@H](CC(C)C)C(=O)N[C@H](Cc2ccccc2)C(=O)N[C@H](CC(C)C)C(=O)N[C@@H]([C@@H](C)O)C(=O)N[C@@H](CO)C(=O)O[C@@H]1C | 32 (≈ 35.2 µM) |  |
| CC[C@H](C)C(=O)N[C@H](Cc1ccccc1)C(=O)N[C@@H]1C(=O)N[C@H](CC(C)C)C(=O)N[C@H](Cc2ccccc2)C(=O)N[C@H](CC(C)C)C(=O)N[C@@H]([C@@H](C)O)C(=O)N[C@@H](CO)C(=O)O[C@@H]1C | 64 (≈ 71.6 µM) |  |
